Measured values: US20230126893A1, “[(1,4,5-TRISUBSTITUTED-1H-PYRAZOL-3-YL)SULFANYL]ACETIC ACID DERIVATIVES, SALTS THEREOF, AND USE THEREOF AS ACTIVE HERBICIDAL INGREDIENTS” (BAYER AKTIENGESELLSCHAFT, priority 2020, published 2023)

Columns and labels:
Assay type in all cases: in vivo
Poa annua [1] = experiment: Post-emergence herbicidal effect against POAAN; conditions: 1280 g/ha, visual assessment about 3 weeks after treatment, 100% = plants have died, 0% = like control plants
Protocol: (§1) [table] 2. Post-emergence herbicidal effect and crop plant compatibility Seeds of monocotyledonous and dicotyledonous weed and crop plants are laid out in sandy loam soil in wood-fibre pots, covered with soil and cultivated in a greenhouse under good growth conditions. 2 to 3 weeks after sowing, the test plants are treated at the one-leaf stage. The compounds of the invention, formulated in the form of wettable powders (WP) or as emulsion concentrates (EC), are then sprayed onto the green parts of the plants as aqueous suspension or emulsion at a water application rate equating to 600 to 800 l/ha with addition of 0.2% wetting agent. After the test plants have been left to stand in the greenhouse under optimal growth conditions for about 3 weeks, the action of the preparations is assessed visually in comparison to untreated controls (herbicidal action in percent (%): 100% activity=the plants have died, 0% activity=like control plants).

Echinochloa crus-galli [2] = experiment: Pre-emergence herbicidal effect against ECHCG; conditions: 1280 g/ha, visual score after 3 weeks, 100% = plants have died, 0% = like control plants
Excerpt: (§2) 1. Pre-emergence herbicidal effect and crop plant compatibility Seeds of monocotyledonous and dicotyledonous weed plants and crop plants are laid out in sandy loam soil in wood-fibre pots and covered with soil. The compounds of the invention, formulated in the form of wettable powders (WP) or as emulsion concentrates (EC), are then applied to the surface of the covering soil as aqueous suspension or emulsion at a water application rate equating to 600 to 800 L/ha with addition of 0.2% wetting agent. After the treatment, the pots are placed in a greenhouse and kept under good growth conditions for the trial plants. The damage to the test plants is scored visually after a test period of 3 weeks by comparison with untreated controls (herbicidal activity in percent (%): 100% activity=the plants have died, 0% activity=like control plants). [table]

Veronica persica [3] = experiment: Post-emergence herbicidal effect against VERPE; conditions: 1280 g/ha, visual assessment about 3 weeks after treatment, 100% = plants have died, 0% = like control plants
Protocol: as §1

Poa annua [4] = experiment: Pre-emergence herbicidal effect against POAAN; conditions: 1280 g/ha, visual score after 3 weeks, 100% = plants have died, 0% = like control plants
Excerpt: as §2

Lolium rigidum = experiment: Pre-emergence herbicidal effect against LOLRI; conditions: 1280 g/ha, visual score after 3 weeks, 100% = plants have died, 0% = like control plants
Excerpt: as §2

Digitaria sanguinalis [5] = experiment: Pre-emergence herbicidal effect against DIGSA; conditions: 1280 g/ha, visual score after 3 weeks, 100% = plants have died, 0% = like control plants
Excerpt: as §2

Veronica persica [6] = experiment: Pre-emergence herbicidal effect against VERPE; conditions: 1280 g/ha, visual score after 3 weeks, 100% = plants have died, 0% = like control plants
Excerpt: as §2

[7] = system: Tripleurospermum inodorum; experiment: Pre-emergence herbicidal effect against MATIN; conditions: 1280 g/ha, visual score after 3 weeks, 100% = plants have died, 0% = like control plants
Excerpt: as §2

[8] = system: Tripleurospermum inodorum; experiment: Post-emergence herbicidal effect against MATIN; conditions: 1280 g/ha, visual assessment about 3 weeks after treatment, 100% = plants have died, 0% = like control plants
Protocol: as §1

Amaranthus retroflexus [9] = experiment: Pre-emergence herbicidal effect against AMARE; conditions: 1280 g/ha, visual score after 3 weeks, 100% = plants have died, 0% = like control plants
Excerpt: as §2

Setaria viridis = experiment: Pre-emergence herbicidal effect against SETVI; conditions: 1280 g/ha, visual score after 3 weeks, 100% = plants have died, 0% = like control plants
Excerpt: as §2

Alopecurus myosuroides [10] = experiment: Post-emergence herbicidal effect against ALOMY; conditions: 1280 g/ha, visual score after about 3 weeks, 100% = plants have died, 0% = like control plants
Protocol: as §1

Stellaria media [11] = experiment: Post-emergence herbicidal effect against STEME; conditions: 1280 g/ha, visual assessment about 3 weeks after treatment, 100% = plants have died, 0% = like control plants
Protocol: as §1

Alopecurus myosuroides [12] = experiment: Pre-emergence herbicidal effect against ALOMY; conditions: 1280 g/ha, visual score after 3 weeks, 100% = plants have died, 0% = like control plants
Excerpt: as §2

Stellaria media [13] = experiment: Pre-emergence herbicidal effect against STEME; conditions: 1280 g/ha, visual score after 3 weeks, 100% = plants have died, 0% = like control plants
Excerpt: as §2

Amaranthus retroflexus [14] = experiment: Post-emergence herbicidal effect against AMARE; conditions: 1280 g/ha, visual assessment about 3 weeks after treatment, 100% = plants have died, 0% = like control plants
Protocol: as §1

Digitaria sanguinalis [15] = experiment: Post-emergence herbicidal effect against DIGSA; conditions: 1280 g/ha, visual score after about 3 weeks, 100% = plants have died, 0% = like control plants
Protocol: as §1

Bassia scoparia = experiment: Post-emergence herbicidal effect against KCHSC; conditions: 1280 g/ha, visual assessment about 3 weeks after treatment, 100% = plants have died, 0% = like control plants
Protocol: as §1

Abutylon threophrasti = experiment: Post-emergence herbicidal effect against ABUTH; conditions: 1280 g/ha, visual assessment about 3 weeks after treatment, 100% = plants have died, 0% = like control plants
Protocol: as §1

Echinochloa crus-galli [16] = experiment: Post-emergence herbicidal effect against ECHCG; conditions: 1280 g/ha, visual score after about 3 weeks, 100% = plants have died, 0% = like control plants
Protocol: as §1

Structure (SMILES) | Post-emergence action against POAAN (Poa annua [1]) | Pre-emergence action against ECHCG (Echinochloa crus-galli [2]) | Post-emergence action against VERPE (Veronica persica [3]) | Pre-emergence action against POAAN (Poa annua [4]) | Pre-emergence action against LOLRI (Lolium rigidum) | Pre-emergence action against DIGSA (Digitaria sanguinalis [5]) | Pre-emergence action against VERPE (Veronica persica [6]) | Pre-emergence action against MATIN [7] | Post-emergence action against MATIN [8] | Pre-emergence action against AMARE (Amaranthus retroflexus [9]) | Pre-emergence action against SETVI (Setaria viridis) | Post-emergence action against ALOMY (Alopecurus myosuroides [10]) | Post-emergence action against STEME (Stellaria media [11]) | Pre-emergence action against ALOMY (Alopecurus myosuroides [12]) | Pre-emergence action against STEME (Stellaria media [13]) | Post-emergence action against AMARE (Amaranthus retroflexus [14]) | Post-emergence action against DIGSA (Digitaria sanguinalis [15]) | Post-emergence action against KCHSC (Bassia scoparia) | Post-emergence action against ABUTH (Abutylon threophrasti) | Post-emergence action against ECHCG (Echinochloa crus-galli [16])
CCOC(=O)CSc1nn(-c2cccc(F)c2F)c(-c2ccccc2)c1Br [Example I-004] | 100% | 90% | 90% | 100% | 100% | 100% | 100% | 100% | 100% | 100% | 100% | 100% | 90% | 90% | 100% | 90% | – | – | – | –
O=C(O)CSc1nn(-c2ccccc2F)c(-c2ccc(F)c(F)c2)c1Br [Example I-005, {[4-Bromo-5-(3,4-difluorophenyl)-1-(2-fluorophenyl)-1H-pyrazol-3-yl]sulfanyl}acetic acid] | – | – | 90% | 100% | 100% | 100% | 100% | 100% | 100% | 100% | 100% | 100% | 100% | 90% | 100% | 90% | 100% | – | – | –
O=C(O)CSc1nn(-c2cccc(F)c2F)c(-c2ccccc2)c1Br [Example I-006] | 100% | 90% | 90% | 100% | 90% | 100% | 100% | 100% | 100% | 100% | 100% | 100% | 100% | 90% | 90% | 100% | 100% | 90% | – | –
O=C(O)CSc1nn(-c2ccccc2F)c(-c2cc(F)cc(Cl)c2)c1Br [Example I-009] | 100% | 90% | 90% | 100% | 100% | 100% | 90% | 100% | 100% | 100% | 100% | – | 100% | 90% | 100% | 100% | – | 100% | 90% | –
CCOC(=O)C[S+]([O-])c1nn(-c2cccc(F)c2F)c(-c2ccccc2)c1Br (stereo not drawn) [Example I-010] | 100% | 100% | 90% | 100% | 100% | 100% | 100% | 100% | 100% | 100% | 100% | 100% | 90% | 100% | 100% | 90% | 90% | 90% | 90% | 100%
CC(Sc1nn(-c2ccccc2F)c(-c2ccc(F)c(F)c2)c1Br)C(=O)O (stereo not drawn) [Example I-022] | 100% | 90% | 100% | 90% | 100% | 100% | 100% | 90% | 100% | 90% | 100% | 100% | 90% | 90% | 100% | – | 90% | 90% | 90% | 100%
CCOC(=O)CSc1nn(-c2ccccc2F)c(-c2sncc2C)c1Br [Example V-001] | – | – | 90% | 90% | – | 90% | – | 90% | – | 100% | – | – | – | – | – | 100% | – | – | – | –
CCOC(=O)CSc1nn(-c2ccccc2F)c(-c2cc(Cl)cs2)c1Br [IV-001] | – | – | 90% | 90% | 90% | – | 90% | 90% | – | 100% | – | – | – | – | 100% | 90% | – | – | – | –
CCOC(=O)CSc1nn(-c2ccccc2F)c(-c2cnccn2)c1Br [VI-001] | 100% | – | 90% | 100% | – | 90% | – | 90% | 100% | – | – | 90% | – | – | 90% | 90% | – | – | 90% | –
